In patent US12383629B2, “DNA-affibody-drug nanoparticles for inhibiting the metastasis of cancer cells overexpressing HER2” (Arizona Board of Regents on behalf of Arizona State …, priority 2019, dated 2025):

System: HER2 receptor
Assay: Western blot assay for HER2 targeting
Format: cell-based
Conditions: BT474, 1 h; 1 μM DOX, 0.02 μM III, 1 μM Herceptin
Method: Western Blot Analysis—BT474 cells (50,000 cells/mL) were seeded in a 6-well cell culture plate and incubated in 1 mL of Gibco® RPMI 1640 medium supplemented with 10% fetal bovine serum (FBS) and 1% antibiotic-antimycotic mix antibiotic supplement at 37° C. for 24 h in a 5% CO2 atmosphere. […] The cells were washed with 1 mL 1×PBS buffer, and treated with 150 μL Cellstripper® non-enzymatic cell dissociation solution. After centrifugation at 500×g for 3 min, the cell pellets were washed with 150 μL 1×PBS buffer and treated with 60 μL, of 1×RIPA lysis buffer containing protease and phosphatase inhibitor cocktail (Sigma-Aldrich). After three cycle of freeze, thaw and sonication following by centrifugation at 15,000×g for 2 min at 4° C., the clear supernatant was collected.
Total protein concentration was measured using a BCA kit (Thermo Fisher Scientific). NuPAGE LDS Sample Buffer (4×) and NuPAGE Reducing Agent (10×) was added to the lysate which was denatured at 70° C. for 5 min. Equal amounts of lysates (25 μg) were loaded on a 4%-12% SDS-polyacrylamide Bis-Tris gels (Invitrogen) according to the manufacturer's recommendations and then proteins were transferred to nitrocellulose membranes. […]

COc1cccc2c1C(=O)c1c(O)c3c(c(O)c1C2=O)C[C@@](O)(C(=O)CO)C[C@@H]3O[C@H]1C[C@H](N)[C@H](O)[C@H](C)O1 [DOX, doxorubicin]
level of phosphorylated HER2 (Y1221/1222): did not change
